According to patent US11166959B2, “Isofuranone compounds useful as HPK1 inhibitors” (BRISTOL-MYERS SQUIBB COMPANY, priority 2017, dated 2021):
pIC50: −log10 of the molar value. Like-named read-outs stand apart in the source and are kept apart here.

Experiments:
IRAK4 = target: T1, IRAK4 (Homo sapiens, UniProt Q9NWZ3); assay: IRAK4 Inhibition Assay (kinase reaction, Caliper capillary electrophoresis); format: biochemical; details: 500 μM ATP, 11 concentrations
T1 construct: 1 nM IRAK4 (160-460); purchased SignalChem M24016
T1 sequence (Q9NWZ3 160-460): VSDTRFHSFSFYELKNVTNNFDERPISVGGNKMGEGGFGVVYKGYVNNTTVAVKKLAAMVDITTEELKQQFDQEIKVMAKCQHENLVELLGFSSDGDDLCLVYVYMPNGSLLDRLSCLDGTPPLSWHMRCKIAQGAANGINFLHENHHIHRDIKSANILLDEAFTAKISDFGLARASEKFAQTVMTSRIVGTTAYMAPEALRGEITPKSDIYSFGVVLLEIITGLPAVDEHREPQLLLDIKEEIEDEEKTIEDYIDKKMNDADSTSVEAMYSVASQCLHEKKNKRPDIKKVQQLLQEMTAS
Description: (§1) The reactions were incubated out for three hours and quenched with 1 mM EDTA solution. The reaction incubation time and enzyme concentration were optimized to obtain a maximum peptide substrate conversion of 20-30%. The reaction mixtures were analyzed by capillary electrophoresis on a Caliper LabChip EZ Reader to resolve phosphorylated and unphosphorylated peptide species and determine peptide substrate conversion. […] The compounds were dissolved in DMSO and evaluated at 11 concentrations to determine IC50 values.

HPK1 = target: T2, HPK1 (Homo sapiens, UniProt Q92918); assay: HPK1 Inhibition Assay (kinase reaction, Caliper capillary electrophoresis); format: biochemical; details: for IRAK4/HPK1 Ratio: ratio of the IRAK4 IC50 value to the HPK1 IC50 value
T2 construct: purchased SignalChem M23-11G
T2 sequence (Q92918 1-346 limits assumed): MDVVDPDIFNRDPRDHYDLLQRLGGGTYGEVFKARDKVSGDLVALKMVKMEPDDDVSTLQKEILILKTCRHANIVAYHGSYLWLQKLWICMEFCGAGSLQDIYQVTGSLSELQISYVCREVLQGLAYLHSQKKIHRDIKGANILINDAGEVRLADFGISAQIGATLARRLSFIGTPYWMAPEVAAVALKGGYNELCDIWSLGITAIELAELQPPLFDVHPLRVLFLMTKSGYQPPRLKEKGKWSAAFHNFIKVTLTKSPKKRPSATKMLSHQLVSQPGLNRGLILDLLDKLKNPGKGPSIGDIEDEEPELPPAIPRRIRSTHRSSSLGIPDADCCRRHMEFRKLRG
Description: as §1, with “to determine the IC50 values.” for “to determine IC50 values.”

[1] = 0.625 nM HPK1, 22 μM ATP, 11 concentrations, read-out: HPK1 IC50

Row | pIC50 (IRAK4) | pIC50 (HPK1; [1]) | IRAK4/HPK1 Ratio (HPK1) | SMILES | pIC50 (HPK1)
1 | 6.00 to 6.60 | > 7.30 | B (B=10 to 50) | CC1(CNC(=O)c2cnc(Nc3ccc4c(c3)C(C)(C)OC4=O)nc2N[C@H](CO)c2ccccc2)COC1 [Example 23, 2-[(3,3-dimethyl-1-oxo-1,3-dihydro-2-benzofuran-5-yl)amino]-4-{[(1S)-2-hydroxy-1-phenylethyl]amino}-N-[(3-methyloxetan-3-yl)methyl]pyrimidine-5-carboxamide] | 
2 | 6.00 to 6.60 | > 7.30 | C (C=>50) | CC1(C)OC(=O)c2ccc(Nc3ncc(C(=O)NCC4(CN5CCOCC5)CC4)c(N[C@H](CO)c4ccccc4)n3)cc21 [Example 26, 2-[(3,3-dimethyl-1-oxo-1,3-dihydro-2-benzofuran-5-yl)amino]-4-{[(1S)-2-hydroxy-1-phenylethyl]amino}-N-({1-[(morpholin-4-yl)methyl]cyclopropyl}methyl)pyrimidine-5-carboxamide] | 
3 | 6.60 to 7.30 | > 7.30 | B (B=10 to 50) | CC1(C)OC(=O)c2ccc(Nc3ncc(C4=NCC5(CCOCC5)O4)c(N[C@H](CO)c4ccccc4)n3)cc21 [Example 27, 5-[(5-{1,8-dioxa-3-azaspiro[4.5]dec-2-en-2-yl}-4-{[(1S)-2-hydroxy-1-phenylethyl]amino}pyrimidin-2-yl)amino]-3,3-dimethyl-1,3-dihydro-2-benzofuran-1-one] | 
4 | 6.60 to 7.30 | > 7.30 | C (C=>50) | CC1(C)OC(=O)c2ccc(Nc3ncc(-c4nc(N5CCOCC5)no4)c(N[C@H](CO)c4ccccc4)n3)cc21 [Example 31, 5-[(4-{[(1S)-2-hydroxy-1-phenylethyl]amino}-5-[3-(morpholin-4-yl)-1,2,4-oxadiazol-5-yl]pyrimidin-2-yl)amino]-3,3-dimethyl-1,3-dihydro-2-benzofuran-1-one] | 
5 | 6.00 to 6.60 | > 7.30 | C (C=>50) | CC1(C)OC(=O)c2ccc(Nc3ncc(-c4nc(CN5CCOCC5)no4)c(N[C@H](CO)c4ccccc4)n3)cc21 [Example 32, 5-[(4-{[(1S)-2-hydroxy-1-phenylethyl]amino}-5-{3-[(morpholin-4-yl)methyl]-1,2,4-oxadiazol-5-yl}pyrimidin-2-yl)amino]-3,3-dimethyl-1,3-dihydro-2-benzofuran-1-one] | 
6 | 6.60 to 7.30 | > 7.30 | C (C=>50) | CC1(C)OC(=O)c2ccc(Nc3ncc(-c4nc(C5CCOCC5)no4)c(N[C@H](CO)c4ccccc4)n3)cc21 [Example 33, 5-[(4-{[(1S)-2-hydroxy-1-phenylethyl]amino}-5-[3-(oxan-4-yl)-1,2,4-oxadiazol-5-yl]pyrimidin-2-yl)amino]-3,3-dimethyl-1,3-dihydro-2-benzofuran-1-one] | 
7 | 6.00 to 6.60 | > 7.30 | C (C=>50) | CCCc1noc(-c2cnc(Nc3ccc4c(c3)C(C)(C)OC4=O)nc2N[C@H](CO)c2ccccc2)n1 [Example 35, 5-[(4-{[(1S)-2-hydroxy-1-phenylethyl]amino}-5-(3-propyl-1,2,4-oxadiazol-5-yl)pyrimidin-2-yl)amino]-3,3-dimethyl-1,_3-dihydro-2-benzofuran-1-one] | 
8 | 6.00 to 6.60 | > 7.30 | C (C=>50) | CCCCc1noc(-c2cnc(Nc3ccc4c(c3)C(C)(C)OC4=O)nc2N[C@H](CO)c2ccccc2)n1 [Example 36, 5-{[5-(3-butyl-1,2,4-oxadiazol-5-yl)-4-{[(1S)-2-hydroxy-1-phenylethyl]amino}pyrimidin-2-yl]amino}-3,3-dimethyl-1,3-dihydro-2-benzofuran-1-one] | 
9 | 6.00 to 6.60 | > 7.30 | C (C=>50) | CC(C)(CCCCO)c1noc(-c2cnc(Nc3ccc4c(c3)C(C)(C)OC4=O)nc2N[C@H](CO)c2ccccc2)n1 [Example 37, 5-[(4-{[(1S)-2-hydroxy-1-phenylethyl]amino}-5-[3-(6-hydroxy-2-methylhexan-2-yl)-1,2,4-oxadiazol-5-yl]pyrimidin-2-yl)amino]-3,3-dimethyl-1,3-dihydro-2-benzofuran-1-one] | 
10 | 6.60 to 7.30 | > 7.30 | C (C=>50) | CC1(C)OC(=O)c2ccc(Nc3ncc(-c4nc(C5(CO)CC5)no4)c(N[C@H](CO)c4ccccc4)n3)cc21 [Example 38, 5-[(4-{[(1S)-2-hydroxy-1-phenylethyl]amino}-5-{3-[1-(hydroxymethyl)cyclopropyl]-1,2,4-oxadiazol-5-yl}pyrimidin-2-yl)amino]-3,3-dimethyl-1,3-dihydro-2-benzofuran-1-one] | 
11 | 6.00 to 6.60 | > 7.30 | C (C=>50) | CC1(C)OC(=O)c2ccc(Nc3ncc(-c4nc(C5CC(F)(F)C5)no4)c(N[C@H](CO)c4ccccc4)n3)cc21 [Example 40, 5-({5-[3-(3,3-difluorocyclobutyl)-1,2,4-oxadiazol-5-yl]-4-{[(1S)-2-hydroxy-1-phenylethyl]amino}pyrimidin-2-yl}amino)-3,3-dimethyl-1,3-dihydro-2-benzofuran-1-one] | 
12 | 6.60 to 7.30 | > 7.30 | C (C=>50) | CC(C)(CO)c1noc(-c2cnc(Nc3ccc4c(c3)C(C)(C)OC4=O)nc2N[C@H](CO)c2ccccc2)n1 [Example 41, (S)-5-((4-((2-hydroxy-1-phenylethyl)amino)-5-(3-(1-hydroxy-2-methylpropan-2-yl)-1,2,4-oxadiazol-5-yl)pyrimidin-2-yl)amino)-3,3-dimethylisobenzofuran-1(3H)-one] | 
13 | 6.00 to 6.60 | > 7.30 | C (C=>50) | CC1(C)OC(=O)c2ccc(Nc3ncc(-c4nc(-c5ccccn5)no4)c(N[C@H](CO)c4ccccc4)n3)cc21 [Example 42, 5-[(4-{[(1S)-2-hydroxy-1-phenylethyl]amino}-5-[3-(pyridin-2-yl)-1,2,4-oxadiazol-5-yl]pyrimidin-2-yl)amino]-3,3-dimethyl-1,3-dihydro-2-benzofuran-1-one] | 
14 | 6.00 to 6.60 | > 7.30 | C (C=>50) | CC1(C)OC(=O)c2ccc(Nc3ncc(-c4nc(-c5cccnc5)no4)c(N[C@H](CO)c4ccccc4)n3)cc21 [Example 43, 5-[(4-{[(1S)-2-hydroxy-1-phenylethyl]amino}-5-[3-(pyridin-3-yl)-1,2,4-oxadiazol-5-yl]pyrimidin-2-yl)amino]-3,3-dimethyl-1,3-dihydro-2-benzofuran-1-one] | 
15 | 6.00 to 6.60 | 6.60 to 7.30 | B (B=10 to 50) | CC1(C)OC(=O)c2ccc(Nc3ncc(-c4nc(-c5cccc(F)c5)no4)c(N[C@H](CO)c4ccccc4)n3)cc21 [Example 45, 5-({5-[3-(3-fluorophenyl)-1,2,4-oxadiazol-5-yl]-4-{[(1S)-2-hydroxy-1-phenylethyl]amino}pyrimidin-2-yl}amino)-3,3-dimethyl-1,3-dihydro-2-benzofuran-1-one] | 
16 | 6.00 to 6.60 | > 7.30 | C (C=>50) | CC1(C)OC(=O)c2ccc(Nc3ncc(-c4nc(C56CC(N)(C5)C6)no4)c(N[C@H](CO)c4ccccc4)n3)cc21 [Example 47, 5-{[5-(3-{3-aminobicyclo[1.1.1]pentan-1-yl}-1,2,4-oxadiazol-5-yl)-4-{[(1S)-2-hydroxy-1-phenylethyl]amino}pyrimidin-2-yl]amino}-3,3-dimethyl-1,3-dihydro-2-benzofuran-1-one] | 

Row | SMILES | pIC50 (IRAK4) | pIC50 (HPK1; [1]) | IRAK4/HPK1 Ratio (HPK1) | pIC50 (HPK1)
17 | CC1(C)OC(=O)c2ccc(Nc3ncc(C(=O)NC[C@@]4(O)CN5CCC4CC5)c(N[C@H](CO)c4ccccc4)n3)cc21 [Example 24, 2-[(3,3-dimethyl-1-oxo-1,3-dihydro-2-benzofuran-5-yl)amino]-N-{[(3R)-3-hydroxy-1-azabicyclo[2.2.2]octan-3-yl]methyl}-4-{[(1S)-2-hydroxy-1-phenylethyl]amino}pyrimidine-5-carboxamide] | 6.00 to 6.60 |  | B (B=10 to 50) | > 7.30
18 | CC1(C)OC(=O)c2ccc(Nc3ncc(C(=O)NCC4CN5CCC4CC5)c(N[C@H](CO)c4ccccc4)n3)cc21 (stereo partly drawn) [Example 25, N-({1-azabicyclo[2.2.2]octan-3-yl}methyl)-2-[(3,3-dimethyl-1-oxo-1,3-dihydro-2-benzofuran-5-yl)amino]-4-{[(1S)-2-hydroxy-1-phenylethyl]amino}pyrimidine-5-carboxamide] | 6.00 to 6.60 |  | B (B=10 to 50) | > 7.30
